Measurements from patent US20100190849A1, “Novel Clerodanes and Methods for Repelling Arthropods” (priority 2006, published 2010).
Marks after values point to notes of the source that are not given here.

How the values were obtained:
Format in all cases: in vivo
[1] = tested on: hybrid (S. invicta×S. richteri); assay: Multiple-choice digging bioassay, fire ant workers
Method: (§1) The repellency of the two terpenoids, callicarpenal and intermedeol, against workers of red imported fire ants, Solenopsis invicta Buren, black imported fire ants, Solenopsis rickeri Forel, and a hybrid of these two species was evaluated using multiple-choice digging bioassays (Tables 9 & 10). […] Callicarpenal and intermedeol were compared with octanoic acid, a known fire ant repellant, at the 25.00 ppm level using two-choice digging bioassays (FIGS. 3 and 4).
(§2) Ants: Two Solenopsis invicta colonies were collected in Sharkey County, Mississippi, and two Solenopsis richteri colonies were collected in Granada County, Mississippi. Two colonies of the hybrid (S. invicta×S. richteri) colony were collected in Sunflower County, Mississippi. Fire ant mounds were shoveled and placed in 19-L plastic buckets. The inside wall of the bucket was then coated with baby powder (Cumberland Swan Holdings, Inc., Smyrna, Tenn.) to prevent ant escape. Following the water-drip method developed by Bank et al. (Banks, W. A., et al., Techniques for collecting, rearing, and handling imported fire ants, USDA SEA AATS-S-21 (1981)), ants were separated and then placed in a 44.5×60.0×13.0 cm plastic tray with inside walls coated with Fluon® (Ag Fluoropolymers, Chadds Ford, Pa.). Distilled water and 15% (w/v) sucrose water solution in separated test tubes which were plugged with cotton balls were placed in the trays. Heliocoverpa zea (Boddie) and tobacco budworm, Heliothis virescens (Fabricius) pupae were used as food sources. Inside each tray were one to three 14.0×2.0 cm Petri dishes with 1.0 cm of hardener dental plaster (Castone®; Dentsply International Inc. York, Pa.) on the bottom. Also, in the center of the Petri dish was a 5.0-cm diameter brood chamber. Two 8-mm access holes were made on the wall of the petri dish above the dental plaster. The Petri dish lid was painted black (1302 Gloss Black Spray Enamel, Louisville, Ky.)to block the light. All colonies were maintained at 22-25° C.
(§3) Fire ant workers dug and removed sand from the tube through the entry hole. The differences in the amount of removed sand among treated and control tubes were used to evaluate chemical repellency. Four 2 ml centrifuge tubes were mounted under a 14.0×2.3 cm Petri dish using glue (Arrow Fastener Co., inc., Saddle Brook, N.J.). Tubes were 5.0 cm away from the center of the Petri dish and at equal distance from each other. A 3-mm diameter access hole was drilled for each centrifuge tube, which went through the bottom of the Petri dish and the cap of the tube. The inner side of the Petri dish was coated with Fluon. Three concentrations of a test compound and one control were set up in each apparatus. Six concentrations, including […], 6.25, 12.50, and 25.00 ppm, were tested in two separated bioassays for each species and hybrid; however three more concentrations of callicarpenal, 50.00, 100.00, and […], were tested for S. invicta. Sand (Premium Play Sand, Plassein International, Longview, Tex.) was first sieved through a ™35 U.S.A. standard testing sieve (Thomas Scientific, Swedesboro, N.J.) and then washed with distilled water and dried at 350° C. for 12 h. A 3 ml dichloromethane solution of callicarpenal or intermedeol was mixed with 30 g sand in an aluminum pan. The sand was stirred every 2 min to facilitate the evaporation of the solvent under a fume hood. After dichloromethane evaporated (5 minutes), 1.92 ml distilled water was added and mixed with sand. Sand in the control tube was treated only with dichloromethane. In each tube a mean (±SD) 2.78 g (±0.06 g) wet sand was added. There was no open space inside the tube. Locations of each concentration were randomized. Fifty fire ant workers were introduced into the center of the Petri Dish. The experiment was conducted at 22±0.8° C. (mean±SD) temperature and 45.4%±11.87% relative humidity. After 24 h, sand in each vial was collected, dried at 150° C. for at least 4 hour, and weighed. […]

[2] = tested on: red imported fire ants, Solenopsis invicta Buren; assay: Multiple-choice digging bioassay, fire ant workers
Method: as §1, §2, §3

[3] = tested on: black imported fire ants, Solenopsis richteri Forel; assay: Multiple-choice digging bioassay, fire ant workers
Method: as §1, §2, §3

[4] = tested on: hybrid (S. invicta×S. richteri); assay: Two-choice digging bioassay, head-to-head against octanoic acid; conditions: 25.00 ppm, FIG. 3
Method: as §1
Head-to-head comparison on repellency of callicarpenal and intermedeol against octanoic acid: The bioassay apparatus was similar as described above, except a smaller Petri dish (8.7×2.3 cm) was used and only two choices were presented: one was sand treated with callicarpenal or intermedeol and the other with octanoic acid. Two choices were opposite each other across the center of the Petri dish and each was 3.0 cm away from the center. All compounds were tested at a 25.00 ppm level. Sand preparation was similar as described above. Ants from the same colonies as above were used in this experiment. There were five replications for each pair of comparisons. A paired t-test (critical P-value=0.05) was used to compare the mean amount of sand removed between two tubes.

## CC1=CCC[C@@H]2[C@@](C)(CC=O)[C@H](C)CC[C@@]12C [callicarpenal, 13,14,15,16-tetranorclerod-3-en-12-al]
[1]; Hybrid colony 1, Exp. 11, 0.75 ppm
  Sand removed (SE), mean weight of sand removed by ants 24 h after release: 0.66 (0.09) g
[1]; Hybrid colony 1, Exp. 11, 1.50 ppm
  Sand removed (SE), mean weight of sand removed by ants 24 h after release: 0.59 (0.10) g
[1]; Hybrid colony 1, Exp. 11, 3.15 ppm
  Sand removed (SE), mean weight of sand removed by ants 24 h after release: 0.30 (0.11) g
[1]; Hybrid colony 1, Exp. 12, 6.25 ppm
  Sand removed (SE), mean weight of sand removed by ants 24 h after release: 0.53 (0.13)* g
[1]; Hybrid colony 1, Exp. 12, 12.50 ppm
  Sand removed (SE), mean weight of sand removed by ants 24 h after release: 0.26 (0.05)* g
[1]; Hybrid colony 1, Exp. 12, 25.00 ppm
  Sand removed (SE), mean weight of sand removed by ants 24 h after release: 0.39 (0.14)* g
[1]; Hybrid colony 2, Exp. 13, 0.75 ppm
  Sand removed (SE), mean weight of sand removed by ants 24 h after release: 0.53 (0.14) g
[1]; Hybrid colony 2, Exp. 13, 1.50 ppm
  Sand removed (SE), mean weight of sand removed by ants 24 h after release: 0.36 (0.09) g
[1]; Hybrid colony 2, Exp. 13, 3.15 ppm
  Sand removed (SE), mean weight of sand removed by ants 24 h after release: 0.58 (0.12) g
[1]; Hybrid colony 2, Exp. 14, 6.25 ppm
  Sand removed (SE), mean weight of sand removed by ants 24 h after release: 0.47 (0.09)* g
[1]; Hybrid colony 2, Exp. 14, 12.50 ppm
  Sand removed (SE), mean weight of sand removed by ants 24 h after release: 0.30 (0.11)* g
[1]; Hybrid colony 2, Exp. 14, 25.00 ppm
  Sand removed (SE), mean weight of sand removed by ants 24 h after release: 0.21 (0.11)* g
[1]; hybrid, two colonies, in sand, 24 h
  concentration at which significant repellency was shown: ≥ 6.25 ppm
[2]; S. invicta colony 1, Exp. 1, 0.75 ppm
  Sand removed (SE), mean weight of sand removed by ants 24 h after release: 0.19 (0.07) g
[2]; S. invicta colony 1, Exp. 1, 1.50 ppm
  Sand removed (SE), mean weight of sand removed by ants 24 h after release: 0.24 (0.15) g
[2]; S. invicta colony 1, Exp. 1, 3.15 ppm
  Sand removed (SE), mean weight of sand removed by ants 24 h after release: 0.40 (0.20) g
[2]; S. invicta colony 1, Exp. 2, 6.25 ppm
  Sand removed (SE), mean weight of sand removed by ants 24 h after release: 0.21 (0.12) g
[2]; S. invicta colony 1, Exp. 2, 12.50 ppm
  Sand removed (SE), mean weight of sand removed by ants 24 h after release: 0.48 (0.19) g
[2]; S. invicta colony 1, Exp. 2, 25.00 ppm
  Sand removed (SE), mean weight of sand removed by ants 24 h after release: 0.08 (0.05) g
[2]; S. invicta colony 1, Exp. 3, 50.00 ppm
  Sand removed (SE), mean weight of sand removed by ants 24 h after release: 0.04 (0.004)* g
[2]; S. invicta colony 1, Exp. 3, 100.00 ppm
  Sand removed (SE), mean weight of sand removed by ants 24 h after release: 0.02 (0.008)* g
[2]; S. invicta colony 1, Exp. 3, 150.00 ppm
  Sand removed (SE), mean weight of sand removed by ants 24 h after release: 0.03 (0.007)* g
[2]; S. invicta colony 2, Exp. 4, 0.75 ppm
  Sand removed (SE), mean weight of sand removed by ants 24 h after release: 0.32 (0.16) g
[2]; S. invicta colony 2, Exp. 4, 1.50 ppm
  Sand removed (SE), mean weight of sand removed by ants 24 h after release: 0.32 (0.15) g
[2]; S. invicta colony 2, Exp. 4, 3.15 ppm
  Sand removed (SE), mean weight of sand removed by ants 24 h after release: 0.36 (0.11) g
[2]; S. invicta colony 2, Exp. 5, 6.25 ppm
  Sand removed (SE), mean weight of sand removed by ants 24 h after release: 0.24 (0.21) g
[2]; S. invicta colony 2, Exp. 5, 12.50 ppm
  Sand removed (SE), mean weight of sand removed by ants 24 h after release: 0.45 (0.18) g
[2]; S. invicta colony 2, Exp. 5, 25.00 ppm
  Sand removed (SE), mean weight of sand removed by ants 24 h after release: 0.02 (0.01) g
[2]; S. invicta colony 2, Exp. 6, 50.00 ppm
  Sand removed (SE), mean weight of sand removed by ants 24 h after release: 0.02 (0.007)* g
[2]; S. invicta colony 2, Exp. 6, 100.00 ppm
  Sand removed (SE), mean weight of sand removed by ants 24 h after release: 0.08 (0.06)* g
[2]; S. invicta colony 2, Exp. 6, 150.00 ppm
  Sand removed (SE), mean weight of sand removed by ants 24 h after release: 0.07 (0.03)* g
[2]; S. invicta, two colonies, in sand, 24 h
  concentration at which significant repellency was shown: ≥ 50.00 ppm
[3]; S. richteri colony 1, Exp. 7, 0.75 ppm
  Sand removed (SE), mean weight of sand removed by ants 24 h after release: 0.40 (0.16) g
[3]; S. richteri colony 1, Exp. 7, 1.50 ppm
  Sand removed (SE), mean weight of sand removed by ants 24 h after release: 0.28 (0.12) g
[3]; S. richteri colony 1, Exp. 7, 3.15 ppm
  Sand removed (SE), mean weight of sand removed by ants 24 h after release: 0.21 (0.13) g
[3]; S. richteri colony 1, Exp. 8, 6.25 ppm
  Sand removed (SE), mean weight of sand removed by ants 24 h after release: 0.10 (0.04)* g
[3]; S. richteri colony 1, Exp. 8, 12.50 ppm
  Sand removed (SE), mean weight of sand removed by ants 24 h after release: 0.40 (0.17)* g
[3]; S. richteri colony 1, Exp. 8, 25.00 ppm
  Sand removed (SE), mean weight of sand removed by ants 24 h after release: 0.08 (0.04)* g
[3]; S. richteri colony 2, Exp. 9, 0.75 ppm
  Sand removed (SE), mean weight of sand removed by ants 24 h after release: 0.27 (0.16) g
[3]; S. richteri colony 2, Exp. 9, 1.50 ppm
  Sand removed (SE), mean weight of sand removed by ants 24 h after release: 0.85 (0.22) g
[3]; S. richteri colony 2, Exp. 9, 3.15 ppm
  Sand removed (SE), mean weight of sand removed by ants 24 h after release: 0.17 (0.11) g
[3]; S. richteri colony 2, Exp. 10, 6.25 ppm
  Sand removed (SE), mean weight of sand removed by ants 24 h after release: 0.10 (0.04)* g
[3]; S. richteri colony 2, Exp. 10, 12.50 ppm
  Sand removed (SE), mean weight of sand removed by ants 24 h after release: 0.10 (0.04)* g
[3]; S. richteri colony 2, Exp. 10, 25.00 ppm
  Sand removed (SE), mean weight of sand removed by ants 24 h after release: 0.01 (0.002)* g
[4]; one hybrid colony
  repellency compared with octanoic acid (in words): significantly greater repellency than octanoic acid
[4]; the other hybrid colony
  repellency compared with octanoic acid (in words): no significant difference
